The test system of data set [1] is EFM-19 cells. Briefly: Proliferation of human breast carcinoma cells, [3H]-thymidine incorporation, EFM-19. Format: cell-based. The conditions noted are these: EFM-19, [3H]-thymidine incorporation. On the procedure: (§1) Human breast carcinoma cells MCF-7, EFM-19 and T-47D were used. The cells were cultured and the tests were carried out as described previously [materials and methods L. De Petrocellis et al. (1998) Proc. Natl. Acad. Sci. U.S.A., 95: 8375-8380]. The activity with respect to the proliferation of the tumour cells was evaluated on the basis of the incorporation of [^3H]-thimidine. The results are expressed as IC50 in μM.

Data set [2] has as its target T1, cannabinoid receptor CB2 (Rattus norvegicus, UniProt Q9QZN9).
T1 construct: endogenous in cells; host or cells: RBL-2H3 rat basophilic leukaemia cells
T1 sequence (Q9QZN9 1-360): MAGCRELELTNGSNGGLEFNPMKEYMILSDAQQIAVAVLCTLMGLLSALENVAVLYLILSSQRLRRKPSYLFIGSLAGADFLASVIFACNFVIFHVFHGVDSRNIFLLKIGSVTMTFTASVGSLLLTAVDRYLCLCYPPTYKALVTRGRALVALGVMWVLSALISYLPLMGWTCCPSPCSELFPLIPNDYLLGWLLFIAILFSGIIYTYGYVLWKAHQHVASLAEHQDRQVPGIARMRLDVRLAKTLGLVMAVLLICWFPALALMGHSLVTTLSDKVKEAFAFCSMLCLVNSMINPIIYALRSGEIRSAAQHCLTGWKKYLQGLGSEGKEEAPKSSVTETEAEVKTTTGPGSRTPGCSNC
Briefly: Binding to cannabinoid receptor CB2, displacement of [3H]WIN55,212-2 on RBL-2H3 cell membranes. The conditions noted are these: read-out: Ki, CB2 receptor, RBL-2H3 + cells, [3H]WIN55,212-2 ligand. The method, then: Mouse neuroblastoma cells N18TG2 which selectively express the cannabinoid receptor CB1 and rat leukaemia basophil cells RBL-2H3+ which selectively express the cannabinoid receptor CB2 were used. The cells were cultured as described previously [L. Faci et al. (1995) Proc. Natl. Acad. Sci. U.S.A., 92: 3376-3380; T. Bisogno et al. (1997) J. Biol. Chem., 272: 3315-3323]. [^3H]SR141716A (55 Ci/mmol) was supplied by Amersham; [^3H]WIN55, 212-2(43 Ci/mmol) was supplied by NEN. The binding tests were carried out with membranes of the said cells resuspended in 50 mM pH 7.0 Tris buffer; 2.5 mM mgCl2; 0.8 mM EDTA; 0.05% bovine serum albumin (BSA); 0.01% ethanol and in the presence of 100 μM phenylmethylsulphonyl fluoride (PMSF; sigma) using 300 pM of [^3H]SR141716A and [^3H]WIN55,212-2, respectively, as ligand.
(§2) The membranes were incubated for 90 min at 30° C., filtered on glass microfibre filters (GFC-Whatman) and the radioactivity was measured by liquid scintillation. The specific binding was calculated using either 10 μM SR141716A or 10 μM HU-210 (obtained from Prof. R. Mechoulam, Hebrew University Jerusalem). The Ki values were calculated using the Chang-Prusoff equation and expressed as concentration μM.
For orientation: Loss of bound radioactivity is the signal in a displacement assay; it reports binding, not function.

Data set [3] deals with EFM-19 cells. Description: Synergistic effect of PEA on antiproliferative activity in EFM-19 cells. It is filed as cell-based, human. Conditions: for Proliferative activity %: control = 100. The method, then:
as §1
Human breast carcinoma cells EFM-19 were used. The test was carried out as indicated in Example C above.

In data set [4] the test system is T-47D cells. Description: Proliferation of human breast carcinoma cells, [3H]-thymidine incorporation, T-47D. Format: cell-based. The method, then: as §1
Background: Dividing cells build labelled thymidine or BrdU into new DNA.

Data set [5] concerns MCF-7 cells. Briefly: Proliferation of human breast carcinoma cells, [3H]-thymidine incorporation, MCF-7. It is filed as cell-based. Conditions: MCF-7, [3H]-thymidine incorporation. The method, then: as §1
Data set [6] concerns the target T2, receptor CB1 (Mus musculus, UniProt P47746).
T2 construct: endogenous in cells; host or cells: N18TG2 mouse neuroblastoma cells
Briefly: Effect on stimulation of cyclic AMP by forskolin in N18TG2 cells. Format: cell-based. The conditions noted are these: 1 μM forskolin, 10 min at 37° C.; read-out: IC50, c-AMP stimulated by forskolin, N18TG2 cells. The method, then: The tests were carried out with the aim of checking whether or not the binding of the N-AVAM molecules to the receptor CB1 had any functional significance. […] After incubation, the cells were extracted and the c-AMP levels were evaluated using a suitable kit from Amersham according to the manufacturer's procedure. The data are expressed as IC50, in μM.

Data set [7] concerns the target T3, cannabinoid receptor CB1 (Mus musculus, UniProt P47746).
T3 construct: endogenous in cells; host or cells: N18TG2 mouse neuroblastoma cells
Briefly: Binding to cannabinoid receptor CB1, displacement of [3H]SR141716A on N18TG2 cell membranes. The conditions noted are these: 300 pM [3H]SR141716A, 90 min at 30° C., read-out: Ki, CB1 receptor, N18TG2 + cells, [3H]SR141716A ligand. On the procedure:
Mouse neuroblastoma cells N18TG2 which selectively express the cannabinoid receptor CB1 and rat leukaemia basophil cells RBL-2H3+ which selectively express the cannabinoid receptor CB2 were used. […] The binding tests were carried out with membranes of the said cells resuspended in 50 mM pH 7.0 Tris buffer; 2.5 mM mgCl2; 0.8 mM EDTA; 0.05% bovine serum albumin (BSA); 0.01% ethanol and in the presence of 100 μM phenylmethylsulphonyl fluoride (PMSF; sigma) using 300 pM of [^3H]SR141716A and [^3H]WIN55,212-2, respectively, as ligand.
as §2

A short description of data set [8]: Solubility (physicochemical properties of the product).
The subject of data set [9] is carrageenan-mediated oedema. Description: Carrageenan-mediated oedema, paw volume. Format: in vivo. Conditions: 5 mg/kg, oral, carrageenan = 100. The method, then:
The method described previously [materials and methods S. Mazzari et al. (1996) Europ. J. Pharmacol., 300: 227-236] were used for the purpose of evaluating the effects of N-AVAM molecules on the hyperreactivity of sensitive nerve cells.
The test compounds were administered orally suspended in physiological saline densified with CMC. The results are expressed as a percentage of variation in the volume of the paw relative to carrageenan.
For orientation: Carrageenan injected into the paw causes an acute inflammation.

Data set [10] deals with DU-145 cells. Description: Proliferation of human prostate carcinoma cells DU145 with prolactin, cell count. It is filed as cell-based. The method, then:
Human prostate carcinoma cells DU145 were used. The cells were cultured as described previously [materials and methods T. Janssen et al. (1996) Cancer, 77: 144-149].
The cells were then incubated in 96-well plates with Eagle's Minimal Essential Medium (MEM) supplemented with 10% foetal calf serum free of endogenous steroids. After 24 hours, the medium was removed and replaced with a medium containing prolactin (PRL) (1 mIU/ml of medium). The layer of cells was trypsinized and the cells were counted by haemocytometry.
The results are expressed as IC50 in μM.

In data set [11] the test system is carrageenan-mediated locomotor hyperalgesia. It is filed as in vivo.
[12] abbreviates: membranes, 300 pM [3H]WIN55,212-2, 90 min at 30° C.
[13] abbreviates: Homo sapiens, test compound alone 1.0 μM, control = 100, read-out: Proliferative activity %.

Values joined by “and” are separate entries in the source; they are usually repeats but may differ in a detail not shown here. Equal values may be shown once. Read-outs that look alike come from different tables or passages of the source.

What is called IC50 is the concentration that gives 50% inhibition. The Ki is the dissociation constant of the complex between target and ligand, obtained from inhibition or displacement. The solubility is the concentration that dissolves in the medium under given conditions.

T2 sequence (P47746 whole entry): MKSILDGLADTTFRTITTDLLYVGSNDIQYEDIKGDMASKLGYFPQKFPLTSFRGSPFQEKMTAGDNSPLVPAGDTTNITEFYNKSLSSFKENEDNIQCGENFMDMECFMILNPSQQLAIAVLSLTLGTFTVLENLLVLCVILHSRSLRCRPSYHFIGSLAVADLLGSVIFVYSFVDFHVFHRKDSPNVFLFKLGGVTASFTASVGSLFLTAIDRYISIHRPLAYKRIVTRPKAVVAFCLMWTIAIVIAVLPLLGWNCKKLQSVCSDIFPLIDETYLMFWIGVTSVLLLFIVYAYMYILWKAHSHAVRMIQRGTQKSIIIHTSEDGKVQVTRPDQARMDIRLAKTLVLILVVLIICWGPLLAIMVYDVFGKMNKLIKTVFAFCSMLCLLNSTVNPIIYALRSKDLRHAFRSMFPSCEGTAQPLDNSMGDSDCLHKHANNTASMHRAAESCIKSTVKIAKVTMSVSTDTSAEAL
T3 sequence (P47746 whole entry): as above

As for `CCCCC/C=C\C/C=C\C/C=C\C/C=C\CCCC(=O)NCc1ccc(O)c(OC)c1` [Example 3, N-(4-hydroxy-3-methoxybenzyl)-arachidonoylamide], the concentration for half-maximal inhibition (IC50) is 0.5 µM in data set [1], 0.3 µM in [4], 0.4 µM in [5] and 1.3 µM in [6]. The figures for the inhibition constant Ki in [2] (setting [12]) and in data set [7] were greater than 15 µM and 1.5 ± 0.29 µM, respectively. Moreover, the values for the Proliferative activity % in data set [3] (test compound alone 0.5 μM) and in data set [3] (test compound alone 1.0 μM) were 70% and 43%, respectively. For the same molecule, the “Solubility in organic solvents, DMSO” value in [8] (in DMSO) is greater than 10 mg/mL. In addition, the “Solubility in organic solvents, ethanol” value in [8] is greater than 10 mg/mL. For the same molecule, the Solubility in water entry in data set [8] is reported as “sparingly soluble”.

As for `CCCCCCCC/C=C\CCCCCCCC(=O)NCc1ccc(O)c(OC)c1` [Example 1, N-(4-hydroxy-3-methoxybenzyl)oleylamide], the results for the “Percentage of variation in the volume of the paw relative to carrageenan” value in data set [9] (60 min), in [9] (120 min) and in [9] (180 min) were 75%, 70% and 65%, respectively. The 50% inhibitory concentration (IC50) was 0.7 µM in [1]; 1.6 µM in data set [4]; 1.6 µM in data set [5]; 1.6 µM in [6]; 0.2 to 0.3 µM in [10] (prolactin 1 mIU/ml). The figures for the Ki in data set [2] (setting [12]) and in [7] were greater than 15 µM and 1.64 ± 0.36 µM, respectively. Also, the Proliferative activity % in data set [3] (test compound alone 1.0 μM) is reported as 60%. Moreover, the “Percentage of variation in the administered weight (hyperalgesia)” value in data set [11] (5 mg/kg, oral, 0 min) is given as 100%; in [11] (5 mg/kg, oral, 60 min), 80%; in data set [11] (5 mg/kg, oral, 120 min), 72%; in [11] (5 mg/kg, oral, 180 min) it was 65%; in [11] (5 mg/kg, oral, 240 min) it was 58%; in data set [11] (5 mg/kg, oral, 300 min) it was 64%. Further, in data set [8] (in DMSO), the “Solubility in organic solvents, DMSO” value was greater than 10 mg/mL. Besides, the “Solubility in organic solvents, ethanol” value in [8] is greater than 10 mg/mL. Also, in data set [8], the Solubility in water result was “sparingly soluble”.

In the case of `CCCCCCCCCCCCCCCC(=O)NCCO` [N-palmitoylethanolamine, reference compound], the inhibition constant (Ki) in data set [2] was determined as 0.001 ± 0.0006 µM. The activity at 1 µM in data set [3] (setting [13]) came out at 100%. The activity at 2.5 µM in data set [3] (Homo sapiens, test compound alone 2.5 μM, control = 100, read-out: Proliferative activity %) came to 100%. In data set [3] (Homo sapiens, test compound alone 5.0 μM, control = 100, read-out: Proliferative activity %), the activity at 5 µM is 100%. Further, in data set [3] (Homo sapiens, test compound alone 10 μM, control = 100, read-out: Proliferative activity %), the activity at 10 µM was 100%. The “Percentage of variation in the administered weight (hyperalgesia)” value in data set [11] (in vivo) is 100% and 82% and 80% and 76% and 64% and 66%.

Consider `COc1cc(CNC(=O)CCCCCCCC(=O)NCc2ccc(O)c(OC)c2)ccc1O` [Example 4, N,N′-bis(4-hydroxy-3-methoxybenzyl)-nonanediamide], for which the Ki in data set [7] is 1.2 ± 0.28 µM. Also, the solubility in data set [8] (organic solvent or mixture, in DMSO, read-out: Solubility in organic solvents, DMSO) is greater than 10 mg/mL. Moreover, in data set [8], the Solubility in water result is given as “sparingly soluble”.

In the case of `CCCCC/C=C\C/C=C\C/C=C\C/C=C\CCCC(=O)NCCO` [Anandamide, reference compound], the half-inhibitory concentration (IC50) in data set [1] (Homo sapiens) was 1.5 µM; in [4] (Homo sapiens, T47D) it was 1.9 µM; in data set [5] (Homo sapiens, MCF7), 0.5 µM; in data set [10] (Homo sapiens, DU-145, prolactin 1 mIU/ml), 0.5 µM. Further, the activity at 1 µM in data set [3] (setting [13]) amounted to 84%.

Consider `CCCCCCCCCCCCCCCC(=O)NCc1ccc(O)c(OC)c1` [Example 2, N-(4-hydroxy-3-methoxybenzyl)-palmitoylamide], for which the concentration for half-maximal inhibition (IC50) worked out at 1 µM in data set [1], 0.8 µM in data set [4], 2.1 µM in data set [5] and 1.8 µM in [6]. For the same molecule, the Ki in data set [2] (setting [12]) is greater than 15 µM; in data set [7] it was 1.75 ± 0.35 µM. Further, in [8] (in DMSO), the “Solubility in organic solvents, DMSO” value was greater than 10 mg/mL. Further, the “Solubility in organic solvents, ethanol” value in [8] was greater than 10 mg/mL. For the same molecule, the Solubility in water entry in data set [8] is “sparingly soluble”.

Take `COc1cc(CNC(=O)CCCC/C=C/C(C)C)ccc1O` [Capsaicin, reference compound]: the Ki in [7] is greater than 10 µM.

For the origin of these results see patent US7244767B2 (priority 1998, dated 2007).
